Results from ChEMBL document CHEMBL2086254, “Synthesis and identification of novel indolo[2,3-a]pyrimido[5,4-c]carbazoles as a new class of anti-cancer agents” (Eur J Med Chem, 2012).
The source made the active and inactive calls. The rule behind the calls is not given here.

Assays:
[1] = tested on: RXF 393; assay: Cytotoxicity against human RXF393 cells assessed as cell growth at 10 uM after 48 hrs by SRB assay relative to control; format: functional; conditions: RXF 393, 48 h, read-out: Activity
[2] = tested on: TK-10; assay: Cytotoxicity against human TK10 cells assessed as cell growth at 10 uM after 48 hrs by SRB assay relative to control; format: functional; conditions: TK-10, 48 h, read-out: Activity
[3] = tested on: PC-3; assay: Cytotoxicity against human PC3 cells assessed as cell growth at 10 uM after 48 hrs by SRB assay relative to control; format: functional; conditions: PC-3, 48 h, read-out: Activity
[4] = tested on: SN12C; assay: Cytotoxicity against human SN12C cells assessed as cell growth at 10 uM after 48 hrs by SRB assay relative to control; format: functional; conditions: read-out: Activity
[5] = molecular target: DNA topoisomerase 2-alpha (Homo sapiens) (UniProt P11388); assay: Inhibition of human DNA topoisomerase 2 at 100 uM after 1 hr by agarose gel circular DNA decatenation assay
[6] = tested on: MCF7; assay: Cytotoxicity against human MCF7 cells assessed as cell growth at 10 uM after 48 hrs by SRB assay relative to control; format: functional; conditions: MCF7, 48 h, read-out: Activity
[7] = tested on: CCRF-CEM; assay: Cytotoxicity against human CCRF-CEM cells assessed as cell growth at 10 uM after 48 hrs by SRB assay relative to control; format: functional; conditions: read-out: Activity
[8] = tested on: HCT-116; assay: Cytotoxicity against human HCT116 cells assessed as cell growth at 10 uM after 48 hrs by SRB assay relative to control; format: functional; conditions: HCT-116, 48 h, read-out: Activity
[9] = tested on: KM12; assay: Cytotoxicity against human KM12 cells assessed as cell growth at 10 uM after 48 hrs by SRB assay relative to control; format: functional; conditions: KM12, 48 h, read-out: Activity
[10] = tested on: SW-620; assay: Cytotoxicity against human SW620 cells assessed as cell growth at 10 uM after 48 hrs by SRB assay relative to control; format: functional; conditions: SW-620, 48 h, read-out: Activity
[11] = tested on: SK-MEL-2; assay: Cytotoxicity against human SK-MEL-2 cells assessed as cell growth at 10 uM after 48 hrs by SRB assay relative to control; format: functional; conditions: SK-MEL-2, 48 h, read-out: Activity
[12] = tested on: ACHN; assay: Cytotoxicity against human ACHN cells assessed as cell growth at 10 uM after 48 hrs by SRB assay relative to control; format: functional; conditions: read-out: Activity
[13] = tested on: RPMI-8226; assay: Cytotoxicity against human RPMI8226 cells assessed as cell growth at 10 uM after 48 hrs by SRB assay relative to control; format: functional; conditions: RPMI-8226, 48 h, read-out: Activity
[14] = tested on: HOP-62; assay: Cytotoxicity against human HOP62 cells assessed as cell growth at 10 uM after 48 hrs by SRB assay relative to control; format: functional; conditions: HOP-62, 48 h, read-out: Activity
[15] = tested on: NCI-H226; assay: Cytotoxicity against human NCI-H226 cells assessed as cell growth at 10 uM after 48 hrs by SRB assay relative to control; format: functional; conditions: NCI-H226, 48 h, read-out: Activity
[16] = tested on: NCI-H322M; assay: Cytotoxicity against human NCI-H322M cells assessed as cell growth at 10 uM after 48 hrs by SRB assay relative to control; format: functional; conditions: read-out: Activity
[17] = tested on: COLO 205; assay: Cytotoxicity against human COLO205 cells assessed as cell growth at 10 uM after 48 hrs by SRB assay relative to control; format: functional; conditions: COLO 205, 48 h, read-out: Activity
[18] = tested on: 786-0; assay: Cytotoxicity against human 786-0 cells assessed as cell growth at 10 uM after 48 hrs by SRB assay relative to control; format: functional; conditions: 786-0, 48 h, read-out: Activity
[19] = tested on: A549; assay: Cytotoxicity against human A549 cells after 48 hrs by SRB assay; format: functional; conditions: A549, 48 h
[20] = tested on: Malme-3M; assay: Cytotoxicity against human MALME-3M cells after 48 hrs by SRB assay; format: functional
[21] = tested on: 786-0; assay: Cytotoxicity against human 786-0 cells after 48 hrs by SRB assay; format: functional; conditions: 786-0, 48 h
[22] = tested on: A498; assay: Cytotoxicity against human A498 cells after 48 hrs by SRB assay; format: functional; conditions: A498, 48 h
[23] = tested on: SN12C; assay: Cytotoxicity against human SN12C cells after 48 hrs by SRB assay; format: functional
[24] = tested on: MCF7; assay: Cytotoxicity against human MCF7 cells after 48 hrs by SRB assay; format: functional; conditions: MCF7, 48 h
[25] = tested on: MDA-MB-231; assay: Cytotoxicity against human MDA-MB-231 cells after 48 hrs by SRB assay; format: functional; conditions: MDA-MB-231, 48 h
[26] = tested on: HL-60; assay: Cytotoxicity against human HL60 cells assessed as cell growth at 10 uM after 48 hrs by SRB assay relative to control; format: functional; conditions: HL-60, 48 h, read-out: Activity
[27] = tested on: HT-29; assay: Cytotoxicity against human HT-29 cells assessed as cell growth at 10 uM after 48 hrs by SRB assay relative to control; format: functional; conditions: HT-29, 48 h, read-out: Activity
[28] = tested on: CCRF-CEM; assay: Cytotoxicity in human CCRF-CEM cells after 48 hrs by SRB assay; format: functional
[29] = tested on: NCI-H23; assay: Cytotoxicity against human NCI-H23 cells after 48 hrs by SRB assay; format: functional; conditions: NCI-H23, 48 h
[30] = tested on: OVCAR-3; assay: Cytotoxicity against human OVCAR3 cells after 48 hrs by SRB assay; format: functional; conditions: OVCAR-3, 48 h
[31] = Cytotoxicity against human breast cancer cell after 48 hrs by SRB assay; format: functional; conditions: Cancer cell lines
[32] = tested on: SR; assay: Cytotoxicity against human SR cells assessed as cell growth at 10 uM after 48 hrs by SRB assay relative to control; format: functional; conditions: read-out: Activity
[33] = tested on: MOLT-4; assay: Cytotoxicity against human MOLT4 cells assessed as cell growth at 10 uM after 48 hrs by SRB assay relative to control; format: functional; conditions: MOLT-4, 48 h, read-out: Activity
[34] = tested on: MDA-MB-231; assay: Cytotoxicity against human MDA-MB-231 cells assessed as cell growth at 10 uM after 48 hrs by SRB assay relative to control; format: functional; conditions: MDA-MB-231, 48 h, read-out: Activity
[35] = read-out: LC50 (the source's name)

Sequence of DNA topoisomerase 2-alpha (Homo sapiens) (P11388 whole entry): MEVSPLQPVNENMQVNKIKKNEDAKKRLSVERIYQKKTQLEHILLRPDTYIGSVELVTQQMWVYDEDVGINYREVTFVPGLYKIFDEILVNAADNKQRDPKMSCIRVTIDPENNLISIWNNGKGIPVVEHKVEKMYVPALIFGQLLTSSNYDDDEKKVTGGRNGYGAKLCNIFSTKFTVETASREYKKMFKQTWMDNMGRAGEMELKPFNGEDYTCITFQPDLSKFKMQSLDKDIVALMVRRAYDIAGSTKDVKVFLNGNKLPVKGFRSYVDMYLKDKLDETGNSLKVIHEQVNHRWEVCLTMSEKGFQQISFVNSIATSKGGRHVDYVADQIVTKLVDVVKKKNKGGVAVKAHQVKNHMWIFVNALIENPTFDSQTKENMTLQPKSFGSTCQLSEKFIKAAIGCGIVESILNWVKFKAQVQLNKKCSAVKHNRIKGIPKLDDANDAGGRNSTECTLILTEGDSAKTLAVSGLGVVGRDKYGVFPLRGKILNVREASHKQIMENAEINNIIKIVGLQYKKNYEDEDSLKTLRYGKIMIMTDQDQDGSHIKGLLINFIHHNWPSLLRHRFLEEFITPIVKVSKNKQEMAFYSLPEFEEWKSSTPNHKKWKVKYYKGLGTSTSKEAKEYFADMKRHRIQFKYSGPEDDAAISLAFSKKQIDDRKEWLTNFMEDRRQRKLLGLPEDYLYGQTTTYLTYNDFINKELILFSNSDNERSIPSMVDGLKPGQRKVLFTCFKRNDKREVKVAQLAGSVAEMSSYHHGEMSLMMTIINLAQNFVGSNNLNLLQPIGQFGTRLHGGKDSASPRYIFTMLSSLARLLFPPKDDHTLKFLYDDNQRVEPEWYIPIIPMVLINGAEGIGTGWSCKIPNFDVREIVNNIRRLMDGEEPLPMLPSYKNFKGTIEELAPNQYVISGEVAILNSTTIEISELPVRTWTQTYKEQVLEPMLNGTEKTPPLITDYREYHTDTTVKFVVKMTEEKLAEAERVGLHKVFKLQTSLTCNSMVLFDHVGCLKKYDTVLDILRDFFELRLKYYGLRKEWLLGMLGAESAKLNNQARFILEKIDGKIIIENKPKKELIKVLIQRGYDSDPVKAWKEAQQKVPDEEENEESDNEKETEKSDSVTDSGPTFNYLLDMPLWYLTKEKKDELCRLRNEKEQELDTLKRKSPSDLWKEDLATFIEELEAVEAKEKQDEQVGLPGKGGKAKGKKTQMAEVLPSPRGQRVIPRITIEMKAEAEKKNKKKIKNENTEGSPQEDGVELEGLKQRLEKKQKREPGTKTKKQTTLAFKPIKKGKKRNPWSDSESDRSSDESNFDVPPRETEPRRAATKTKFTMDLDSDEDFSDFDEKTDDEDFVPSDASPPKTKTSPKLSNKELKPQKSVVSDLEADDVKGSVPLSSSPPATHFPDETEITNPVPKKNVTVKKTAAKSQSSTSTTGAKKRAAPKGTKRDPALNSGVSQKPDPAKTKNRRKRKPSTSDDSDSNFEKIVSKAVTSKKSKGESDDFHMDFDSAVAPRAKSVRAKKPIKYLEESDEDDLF

Cn1cc(-c2[nH]c(=O)[nH]c(=O)c2-c2cn(C)c3ccccc23)c2ccccc21 gave a growth at 10 µM [1] of 111%, a growth at 10 µM [2] of 94.5% and a growth at 10 µM [3] of 86.1%. The growth at 10 µM [4] was 110%, the inhibition [5] was “inactive” and the growth at 10 µM [6] was 60.1%. The growth at 10 µM [7] was 87.6%, the growth at 10 µM [8] was 91.7% and the growth at 10 µM [9] was 93.3%. It also gave a growth at 10 µM [10] of 88.8%, a growth at 10 µM [11] of 118% and a growth at 10 µM [12] of 92.5%. The growth at 10 µM [13] was 98.9%, the growth at 10 µM [14] was 83.3% and the growth at 10 µM [15] was 86.2%. It also gave a growth at 10 µM [16] of 105%, a growth at 10 µM [17] of 96.3% and a growth at 10 µM [18] of 111%.

For Cn1c2ccccc2c2c3nc(N)[nH]c(=O)c3c3c4ccccc4n(C)c3c21, the growth at 10 µM [1] was 94%, the growth at 10 µM [2] was 50.1% and the growth at 10 µM [3] was 59.1%. It also gave a GI50 [19] of 5.8 µM, a TGI [19] greater than 100 µM and a CC50 [19, 35] greater than 100 µM. For the same molecule, the GI50 [20] was 14.5 µM, the TGI [20] was 74.8 µM and the CC50 [20, 35] was greater than 100 µM. It also gave a GI50 [21] of 7.7 µM, a TGI [21] of 54.4 µM and a CC50 [21, 35] greater than 100 µM. The GI50 [22] was 27.4 µM, the TGI [22] was 97.1 µM and the CC50 [22, 35] was greater than 100 µM. The GI50 [23] was 6.49 µM, the TGI [23] was greater than 100 µM and the CC50 [23, 35] was greater than 100 µM. For the same molecule, the GI50 [24] was 2.13 µM, the TGI [24] was 44.1 µM and the CC50 [24, 35] was greater than 100 µM. It also gave a GI50 [25] of 93 µM, a TGI [25] greater than 100 µM and a CC50 [25, 35] greater than 100 µM. For the same molecule, the growth at 10 µM [4] was 61.4%, the inhibition [5] was “inactive” and the growth at 10 µM [6] was 25%. The growth at 10 µM [7] was 35.2%, the growth at 10 µM [26] was 34.3% and the growth at 10 µM [8] was 34%. It also gave a growth at 10 µM [27] of 17.6%, a growth at 10 µM [9] of 19.9% and a growth at 10 µM [10] of 31.6%. For the same molecule, the growth at 10 µM [11] was 32%, the growth at 10 µM [12] was 29.5% and the GI50 [28] was 3.41 µM. It also gave a TGI [28] greater than 100 µM, a CC50 [28, 35] greater than 100 µM and a GI50 [29] of 3.51 µM. The TGI [29] was greater than 100 µM, the CC50 [29, 35] was greater than 100 µM and the GI50 [30] was 9.07 µM. For the same molecule, the TGI [30] was 25.6 µM, the CC50 [30, 35] was 69.8 µM and the GI50 [31] was 2.13 µM. It also gave a TGI [31] of 44.1 µM, a CC50 [31, 35] greater than 100 µM and a growth at 10 µM [32] of 64%. For the same molecule, the growth at 10 µM [33] was 53.3%, the growth at 10 µM [13] was 61.4% and the growth at 10 µM [14] was 95.2%. The growth at 10 µM [15] was 78.1%, the growth at 10 µM [16] was 32.9% and the growth at 10 µM [17] was 67.9%. The growth at 10 µM [34] was 103% and the growth at 10 µM [18] was 62.3%.

Cn1cc(-c2nc(N)[nH]c(=O)c2-c2cn(C)c3ccccc23)c2ccccc21 gave a growth at 10 µM [1] of 131%, a growth at 10 µM [2] of 82.3% and a growth at 10 µM [3] of 89.7%. The inhibition [5] was “inactive”, the growth at 10 µM [6] was 77.6% and the growth at 10 µM [26] was 103%. It also gave a growth at 10 µM [8] of 99%, a growth at 10 µM [27] of 94.3% and a growth at 10 µM [9] of 103%. For the same molecule, the growth at 10 µM [10] was 94%, the growth at 10 µM [11] was 102% and the growth at 10 µM [12] was 98.5%. For the same molecule, the growth at 10 µM [32] was 110%, the growth at 10 µM [33] was 105% and the growth at 10 µM [13] was 111%. The growth at 10 µM [14] was 85.3%, the growth at 10 µM [15] was 91% and the growth at 10 µM [16] was 88.6%. For the same molecule, the growth at 10 µM [17] was 104%, the growth at 10 µM [34] was 105% and the growth at 10 µM [18] was 122%.
